Counter-ions that a name gives are not always drawn.
| melting point [°C] | SMILES |
| --- | --- |
| 214 to 217 | CN1C(=O)/C(=C(\Nc2ccc(-c3cn(C)cn3)cc2)c2ccc(CN)cc2)c2ccccc21 [Example 36, 3-{(4-aminomethylphenyl)-[4-(1-methyl-1H-imidazol-4-yl)phenylamino]methylene}-1-methyl-1,3-dihydroindol-2-one] |
| 253 to 254 | CN(C)C(=O)CN(c1cccc(N/C(=C2\C(=O)Oc3ccccc32)c2ccc(CN)c(F)c2)c1)S(C)(=O)=O (as salt: HCl) [Example 101] |
| 196 to 197 | Cc1nc(-c2ccc(N/C(=C3\C(=O)Oc4ccccc43)c3ccc(CN)c(F)c3)cc2)cs1 [Example 102] |

— patent US8173699B2, “Compounds for the treatment of inflammatory diseases” (Boehringer Ingelheim International GmbH, priority 2005, dated 2012)
